# Data taken from PMC4199632, “Exploring the Anti-Cancer Activity of Novel Thiosemicarbazones Generated through the Combination of Retro-Fragments: Dissection of Critical Structure-Activity Relationships” (PLoS ONE, 2014).
# Tests used:
# [1] = Ascorbate oxidation assay (iron complexes); assay type: biochemical; details: iron complex; for Ascorbate oxidation (% of the control): FeIII 10 µM, ascorbate 100 µM
# Experimental: The ability of the iron complexes of the novel ligands to mediate the oxidation of the physiological substrate, ascorbate, was examined using established methods, [18], [22], [52], [53]. Ascorbic acid (100 µM) was prepared immediately prior to each experiment and was incubated in the presence of Fe^III (10 µM; as FeCl3), the chelator (1–60 µM) and a 50-fold molar excess of citrate (500 µM). The absorbance at 265 nm was measured after 10 and 40 min and the difference in absorbance at these time points was calculated. The results of these experiments were expressed as iron-binding equivalents (IBE) due to the different denticity of the chelators examined. The chelators, Dp44mT, DFO and ethylenediaminetetraacetic acid (EDTA) were used as controls as the ability of their iron complexes to oxidize ascorbate has been extensively characterized, [15], [52], [53].
# The ability of the iron complexes of the novel TSCs to catalyze the oxidation of the physiological substrate, ascorbate, was important to assess as redox cycling may play a critical role in their anti-proliferative activity, [15], [18], [52], [53]. Thus, the oxidation of ascorbate mediated by the iron complexes of series 1–6 were examined in comparison to the iron complexes of the control compounds, DFO, EDTA and Dp44mT, as the ability of the latter to oxidize ascorbate is well characterized, [15], [52], [53], [68]. The results were expressed as a percentage of the control (no chelator) at iron-binding equivalents (IBEs) of 0.1 (excess “free” iron), 1 (iron-chelator complexes with a fully filled coordination sphere), or 3 (excess free chelator), due to the different denticity of the chelators examined (Fig. 10).
# Figure 10 Effect of the iron complexes of (A) series 1, (B) series 2, (C) series 3, (D) series 4, (E) series 5 and (F) series 6 chelators, relative to DFO, Dp44mT and EDTA, on ascorbate oxidation. Chelators at iron-binding equivalent (IBE) ratios of 0.1, 1, and 3 were incubated in the presence of Fe^III (10 µM) and ascorbate (100 µM). The UV-Vis absorbance at 265 nm was recorded after 10 and 40 min, and the difference between the time points was calculated. Results are mean ±SD (3 experiments).
# [2] = tested on: SK-N-MC cells; assay: Inhibition of cellular 59Fe uptake from 59Fe2-Tf; assay type: cell-based, human; details: chelator 25 µM; for Internalized 59Fe uptake from 59Fe2-Tf (% of the control): 59Fe2-Tf 0.75 µM, 3 h/37°C
# Experimental: The iron transport protein, Tf (Sigma-Aldrich), was labeled with ^59Fe (PerkinElmer Life and Analytical Sciences, Boston, MA) to form ^59Fe2-Tf using standard methods, [7]. Unbound ^59Fe was removed by passage through a Sephadex G25 column and was followed by exhaustive dialysis, [7].
# The ability of the chelators to prevent the cellular uptake of ^59Fe from ^59Fe2-Tf was examined using standard methods, [14], [17], [18], [50]. A monolayer of SK-N-MC cells was incubated with medium containing ^59Fe2-Tf (0.75 µM) and the chelator (25 µM) for 3 h at 37°C. The medium was then removed and the cells were washed four times with ice-cold PBS. The cells were then incubated for 30 min at 4°C with the general protease, Pronase (1 mg/mL; Sigma-Aldrich), to remove membrane-bound ^59Fe. The cells were removed using a plastic spatula and centrifuged at 14,000 rpm/1 min to separate internalized from membrane-bound ^59Fe. The cell pellet was resuspended in 1 mL of PBS and the internalized ^59Fe was measured on a γ-scintillation counter. Internalized ^59Fe uptake was calculated as a percentage of the control (medium alone). Again, the novel ligands were compared to DFO and Dp44mT as their ability to inhibit cellular ^59Fe uptake has been extensively characterized using SK-N-MC cells, [14], [17], [18], [50].
# Figure 8 Effect of (A) series 1, (B) series 2, (C) series 3, (D) series 4, (E) series 5 and (F) series 6 chelators, relative to the controls DFO and Dp44mT, on ^59Fe uptake from ^59Fe-transferrin by SK-N-MC cells. Cells were incubated for 3 h/37°C with ^59Fe-transferrin (0.75 µM) in the presence or absence of the chelators (25 µM). At the end of this incubation, cells were washed 4 times with ice-cold PBS. Internalization of ^59Fe was assessed by incubation for 30 min/4°C with the protease, Pronase (1 mg/mL). Cellular ^59Fe was then assessed using a γ-scintillation counter. Results are mean ±SD (3 experiments).
SMILES,Ascorbate oxidation (% of the control) ([1]; IBE 3),Inhibition of 59Fe uptake compared with controls [2],Internalized 59Fe uptake from 59Fe2-Tf (% of the control) [2],also measured
S=C(NN=C(c1ccccn1)c1ccccn1)N1CCN(c2cnccn2)CC1 [1e],200–265%,–,–,–
CCN1CCN(C(=S)N/N=C/c2ccc3ccccc3n2)CC1 [2a],200–265%,comparable ability to inhibit ^59Fe uptake to the control medium,–,–
S=C(N/N=C/c1ccc2ccccc2n1)N1CCN(c2ccccc2)CC1 [2b],–,comparable inhibition of ^59Fe uptake to that of DFO,–,–
CN(C(=S)N/N=C/c1ccc2ccccc2n1)C1CCCCC1 [2f],–,comparable inhibition of ^59Fe uptake to that of DFO,–,–
CN(C(=S)N/N=C/c1cnc2ccccc2n1)C1CCCCC1 [5f],–,comparable inhibition of ^59Fe uptake to that of DFO,–,Ascorbate oxidation compared with controls ([1]; IBE 3): decreased ascorbate oxidation relative to the control
CN(C(=S)N/N=C/c1ccccc1O)C1CCCCC1 [6f],–,–,3.6–11.5%,Ascorbate oxidation compared with controls ([1]; IBE 3): decreased ascorbate oxidation relative to the control
"CC(=O)N(O)CCCCCNC(=O)CCC(=O)N(O)CCCCCNC(=O)CCC(=O)N(O)CCCCCN [DFO, desferrioxamine, reference compound]",23%,–,83%,Ascorbate oxidation (% of the control) ([1]; IBE 1): 47%
"CN(C)C(=S)NN=C(c1ccccn1)c1ccccn1 [Dp44mT, di-2-pyridylketone 4,4-dimethyl-3-thiosemicarbazone, reference compound]",196%,–,6%,Ascorbate oxidation (% of the control) ([1]; IBE 0.1): 129%; Ascorbate oxidation (% of the control) ([1]; IBE 1): 203%
